# Measured values as given in PubChem BioAssay AID624274 (Broad Institute, 2012).
# Target: Protein disulfide-isomerase (Homo sapiens) (UniProt P07237)
# Experiment: PDI inhibitors, insulin turbidity readout, dose response, biochemical, absorbance, cherry-picked samples, set 2 (AID 624274)
# Conditions: PDI insulin reduction turbidity, absorbance 650 nm
# Sequence of Protein disulfide-isomerase (Homo sapiens) (P07237 whole entry, looked up): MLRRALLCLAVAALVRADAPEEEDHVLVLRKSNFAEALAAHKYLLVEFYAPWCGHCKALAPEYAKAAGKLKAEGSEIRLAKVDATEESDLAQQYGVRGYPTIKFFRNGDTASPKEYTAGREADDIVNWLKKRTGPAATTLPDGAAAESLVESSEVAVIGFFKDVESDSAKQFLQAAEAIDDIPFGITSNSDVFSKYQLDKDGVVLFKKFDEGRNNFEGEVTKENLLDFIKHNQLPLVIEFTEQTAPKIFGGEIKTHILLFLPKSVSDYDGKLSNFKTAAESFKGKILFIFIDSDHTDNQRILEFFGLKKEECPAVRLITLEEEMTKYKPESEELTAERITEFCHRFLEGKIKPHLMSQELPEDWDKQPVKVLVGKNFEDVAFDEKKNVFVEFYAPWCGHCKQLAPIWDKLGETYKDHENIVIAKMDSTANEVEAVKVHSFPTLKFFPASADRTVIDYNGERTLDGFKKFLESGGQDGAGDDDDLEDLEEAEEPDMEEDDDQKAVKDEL
row,SMILES,AC50 [µM]
1,CC(=O)OC[C@H]1O[C@@H](Oc2cc(O)cc3oc(-c4ccc(O)cc4)cc(=O)c23)[C@H](O[C@@H]2O[C@@H](C)[C@H](O)[C@@H](O)[C@H]2O)[C@@H](O)[C@@H]1O,19.5
2,Cc1noc(C)c1S(=O)(=O)Nc1ccc2c(c1)CC(=O)N([C@H](C)CO)C[C@H](C)[C@@H](CN(C)S(=O)(=O)c1ccc(F)cc1)O2,19.5
3,Cc1c(O)ccc2c(CN3CCN(C/C=C/c4ccccc4)CC3)cc(=O)oc12,19.5
4,Cc1c(-n2cc(C(=O)c3ccccc3O)cc(C#N)c2=O)c(=O)n(-c2ccccc2)n1C,5.89
